The RepoRT retention time repository

Experiment: Waters ACQUITY UPLC BEH C18, 50 × 2.1 mm, 1.7 µm, 30 °C, 0.3 mL/min, estimated dead time 0.37 min; A: water + 0.3% formic acid; B: acetonitrile; gradient (min/%B) 0.5/5 3.5/20 5.5/25 7/57 8/90
Details: stereoisomer not certain

Compound: CN1C2CCC1C(C(=O)O)C(OC(=O)c1ccccc1)C2 (stereo unspecified)
- LC retention time: 3.31 min

Compound: COC(=O)CCc1ccc(OCC(O)CNC(C)C)cc1 (stereo unspecified)
- LC retention time: 4.31 min

Compound: CNC(C)Cc1ccc2c(c1)OCO2 (stereo unspecified)
- LC retention time: 2.73 min

Compound: CC(C)(C)NCC(O)c1cc(O)cc(O)c1 (stereo unspecified)
- LC retention time: 1.44 min

Compound: CC(C)NC1CCn2c(=O)[nH]c3cccc(c32)C1O (stereo unspecified)
- LC retention time: 1.43 min

Compound: CC1(O)CCC2C3CCC4=CC(=O)CCC4=C3C=CC21C (stereo unspecified)
- LC retention time: 7.12 min

Compound: CC(CN1CCOCC1)C(C(=O)N1CCCC1)(c1ccccc1)c1ccccc1 (stereo unspecified)
- LC retention time: 6.97 min

Compound: CCN(CC)C(=O)c1cccnc1
- LC retention time: 2.02 min

Compound: CN(C)C(=O)Oc1cc(OC(=O)N(C)C)cc(C(O)CNC(C)(C)C)c1 (stereo unspecified)
- LC retention time: 4.59 min

Compound: CC(Cc1ccccc1)NC(C#N)c1ccccc1 (stereo unspecified)
- LC retention time: 7.8 min

Compound: CCOC(=O)C1(c2ccccc2)CCN(C)CC1
- LC retention time: 4.43 min

Compound: CC(C)NCC(O)COc1ccc(COCCOC(C)C)cc1 (stereo unspecified)
- LC retention time: 5.03 min

Compound: CC(Cc1ccccc1)N(C)Cc1ccco1 (stereo unspecified)
- LC retention time: 4.46 min

Compound: CC(Cc1ccccc1)NCCn1cnc2c1c(=O)n(C)c(=O)n2C (stereo unspecified)
- LC retention time: 4.01 min

Compound: O=C(O)C(c1ccccc1)C1CCCCN1 (stereo unspecified)
- LC retention time: 3.25 min

Compound: CC(C(O)c1ccccc1)N(C)C (stereo unspecified)
- LC retention time: 2.2 min

Compound: CCC1(O)CCC2C3CCC4=CC(=O)CCC4=C3C=CC21CC (stereo unspecified)
- LC retention time: 7.79 min

Compound: Cc1cc(C)cc(NC(=O)Cc2ccc(OC(C)(C)C(=O)O)cc2)c1
- LC retention time: 7.59 min

Compound: CCCC(=O)Nc1ccc(OCC(O)CNC(C)C)c(C(C)=O)c1 (stereo unspecified)
- LC retention time: 3.71 min

Compound: C=CCOc1ccccc1OCC(O)CNC(C)C (stereo unspecified)
- LC retention time: 4.66 min

Compound: CCC(C)CC(C)N (stereo unspecified)
- LC retention time: 2.87 min

Compound: CNC(C)Cc1ccccc1OC (stereo unspecified)
- LC retention time: 3.3 min

Compound: CNCC(C)c1ccccc1 (stereo unspecified)
- LC retention time: 2.57 min

Compound: CC12Cc3c([nH][nH]c3=O)CC1CCC1C2CCC2(C)C1CCC2(C)O (stereo unspecified)
- LC retention time: 6.7 min

Compound: CC12CCC(=O)C=C1CCC1C2C(=O)CC2(C)C1CCC2(O)C(=O)CO (stereo unspecified)
- LC retention time: 6.31 min

Compound: CC(C)NCC(O)COc1ccc(CC(N)=O)cc1 (stereo unspecified)
- LC retention time: 1.62 min

Compound: CNC(C)Cc1ccc(O)cc1 (stereo unspecified)
- LC retention time: 1.24 min

Compound: CC(C)NCC(O)COc1cccc2ccccc12 (stereo unspecified)
- LC retention time: 5.78 min

Compound: Cc1cccc(Nc2ccncc2S(=O)(=O)NC(=O)NC(C)C)c1
- LC retention time: 6.02 min

Compound: N=C1NC(=O)C(c2ccccc2)O1 (stereo unspecified)
- LC retention time: 2.7 min

Compound: CC(C)NCC(O)COc1cccc2[nH]ccc12 (stereo unspecified)
- LC retention time: 2.74 min

Compound: CC(N)C(O)c1ccccc1 (stereo unspecified)
- LC retention time: 1.7 min

Compound: COc1ccc(CC(C)NCC(O)c2ccc(O)c(NC=O)c2)cc1 (stereo unspecified)
- LC retention time: 3.94 min

Compound: Nc1nc(N)c2nc(-c3ccccc3)c(N)nc2n1
- LC retention time: 3 min

Compound: CC1(C)OC2CC3C4CCC5=CC(=O)C=CC5(C)C4C(O)CC3(C)C2(C(=O)CO)O1 (stereo unspecified)
- LC retention time: 6.98 min

Compound: CC12CCC(=O)C=C1C=CC1C2CCC2(C)C1CCC21CCC(=O)O1 (stereo unspecified)
- LC retention time: 7.63 min

Compound: CC(N)CCCC(C)(C)O (stereo unspecified)
- LC retention time: 1.29 min

Compound: CNC(C)CC1CCCCC1 (stereo unspecified)
- LC retention time: 4.4 min

Compound: COC(=O)C1CC2=CC(=O)CCC2(C)C23OC2CC2(C)C(CCC24CCC(=O)O4)C13 (stereo unspecified)
- LC retention time: 6.75 min

Compound: CC(C)=CCN1CCC2(C)c3cc(O)ccc3CC1C2C (stereo unspecified)
- LC retention time: 5.07 min

Compound: CCN(CC)C(=O)c1ccc(O)c(OC)c1
- LC retention time: 4.77 min

Compound: CC(C)(C#N)c1cc(Cn2cncn2)cc(C(C)(C)C#N)c1
- LC retention time: 6.91 min

Compound: CC12CCC3C(CCC4=CC(=O)C=CC43C)C1CCC(=O)O2 (stereo unspecified)
- LC retention time: 6.56 min

Compound: CC(C)(C)NCC(O)COc1cccc2c1CCCC2=O (stereo unspecified)
- LC retention time: 4 min

Compound: NC(=O)CS(=O)C(c1ccccc1)c1ccccc1 (stereo unspecified)
- LC retention time: 6.01 min

Compound: Cc1ccccc1CC(C)N (stereo unspecified)
- LC retention time: 3.25 min

Compound: CCC1(c2ccc(N)cc2)CCC(=O)NC1=O (stereo unspecified)
- LC retention time: 2.2 min

Compound: COC(=O)C(c1ccccc1)C1CCCCN1 (stereo unspecified)
- LC retention time: 3.9 min

Compound: CC(Cc1ccccc1)[n+]1cc(N=C([O-])Nc2ccccc2)on1 (stereo unspecified)
- LC retention time: 7.25 min

Compound: CC(Cc1ccccc1)N(C)C (stereo unspecified)
- LC retention time: 2.76 min

Compound: CC12CCC(=O)C=C1CCC1C2C(O)CC2(C)C1CCC2(O)C(=O)CO (stereo unspecified)
- LC retention time: 6.23 min

Compound: COc1ccccc1OCCNCC(O)COc1cccc2[nH]c3ccccc3c12 (stereo unspecified)
- LC retention time: 6.81 min

Compound: CCC(=C(c1ccccc1)c1ccc(OCCN(C)C)cc1)c1ccccc1
- LC retention time: 7.76 min

Compound: CCCCNc1cc(C(=O)O)cc(S(N)(=O)=O)c1Oc1ccccc1
- LC retention time: 7.49 min

Compound: COCCc1ccc(OCC(O)CNC(C)C)cc1 (stereo unspecified)
- LC retention time: 3.81 min

Compound: CCCC(Cc1ccccc1)N1CCCC1 (stereo unspecified)
- LC retention time: 5.09 min

Compound: CCC(=O)C(CC(C)N(C)C)(c1ccccc1)c1ccccc1 (stereo unspecified)
- LC retention time: 7.03 min

Compound: C1CCc2nnnn2CC1
- LC retention time: 2.4 min

Compound: CN1CCC23c4c5ccc(O)c4OC2C(=O)CCC3C1C5 (stereo unspecified)
- LC retention time: 1.48 min

Compound: CNC(C)Cc1ccccc1 (stereo unspecified)
- LC retention time: 2.59 min

Compound: CCCN(CCC)S(=O)(=O)c1ccc(C(=O)O)cc1
- LC retention time: 7.56 min

Compound: CC(C)(C)NCC(O)c1ccc(O)c(CO)c1 (stereo unspecified)
- LC retention time: 1.45 min

Compound: CC12C=CC(=O)C=C1CCC1C2C(O)CC2(C)C1CCC2(O)C(=O)CO (stereo unspecified)
- LC retention time: 6.15 min

Compound: COC12CCC3(CC1C(C)(O)C(C)(C)C)C1Cc4ccc(O)c5c4C3(CCN1CC1CC1)C2O5 (stereo unspecified)
- LC retention time: 6.55 min

Compound: CNC(C)C(O)c1ccc(O)cc1 (stereo unspecified)
- LC retention time: 0.65 min

Compound: CC(CCc1ccccc1)NCC(O)c1ccc(O)c(C(N)=O)c1 (stereo unspecified)
- LC retention time: 5.1 min

Compound: CC(C)NCC(O)COc1ccc(CCOCC2CC2)cc1 (stereo unspecified)
- LC retention time: 6.11 min

Compound: OC(c1ccccc1)(c1ccccc1)C1CCCCN1 (stereo unspecified)
- LC retention time: 4.75 min

Compound: O=C1NC(=NC2CC2)OC1c1ccccc1 (stereo unspecified)
- LC retention time: 4.84 min

Compound: Nc1nc(N)c(-c2ccccc2)s1
- LC retention time: 1.84 min

Compound: CCNCC(O)c1cccc(O)c1 (stereo unspecified)
- LC retention time: 0.92 min

Compound: c1ccc(CN2CCNCC2)cc1
- LC retention time: 0.67 min

Compound: C=CCc1ccccc1OCC(O)CNC(C)C (stereo unspecified)
- LC retention time: 5.93 min

Compound: CC(=O)Oc1c(C)cc(OCC(O)CNC(C)C)c(C)c1C (stereo unspecified)
- LC retention time: 5.62 min

Compound: CC(C)(N)Cc1ccccc1
- LC retention time: 2.91 min

Compound: CC(C)c1c(CN(C)C(C)Cc2ccccc2)n(C)n(-c2ccccc2)c1=O (stereo unspecified)
- LC retention time: 6.48 min

Compound: CC(C)NCC(O)c1ccc(NS(C)(=O)=O)cc1 (stereo unspecified)
- LC retention time: 1.58 min

Compound: C#CC1(O)CCC2C3CCC4=Cc5oncc5CC4(C)C3CCC21C (stereo unspecified)
- LC retention time: 8.13 min

Compound: CCN(CC)C(=O)Nc1ccc(OCC(O)CNC(C)(C)C)c(C(C)=O)c1 (stereo unspecified)
- LC retention time: 4.46 min

Compound: CCNC1C2CCC(C2)C1c1ccccc1 (stereo unspecified)
- LC retention time: 4.97 min

Compound: CCN(CC)C(C)C(=O)c1ccccc1 (stereo unspecified)
- LC retention time: 2.73 min

Compound: CC(=O)OCC(=O)C12N=C(C)OC1CC1C3CCC4=CC(=O)C=CC4(C)C3C(O)CC12C (stereo unspecified)
- LC retention time: 7.2 min

Compound: CC(N)Cc1ccccc1 (stereo unspecified)
- LC retention time: 2.37 min

Compound: CC=CC(=O)N(CCC)C(CC)C(=O)N(C)C (stereo unspecified)
- LC retention time: 5.92 min

Compound: CC(Cc1ccccc1)N(C)Cc1ccccc1 (stereo unspecified)
- LC retention time: 5.59 min

Compound: COc1ccc2c3c1OC1C(O)C=CC4C(C2)N(C)CCC341 (stereo unspecified)
- LC retention time: 2.15 min

Compound: NC(CC(O)COc1cccc2ccccc12)=NO (stereo unspecified)
- LC retention time: 4.76 min

Compound: CNC(C)C(O)c1ccccc1 (stereo unspecified)
- LC retention time: 2 min

Compound: OCc1cc(C(O)CNCCCCCCOCCCCc2ccccc2)ccc1O (stereo unspecified)
- LC retention time: 7.12 min

Compound: O=C(c1ccc(OCCN2CCCCC2)cc1)c1c(-c2ccc(O)cc2)sc2cc(O)ccc12
- LC retention time: 6.58 min

Compound: CC(N)Cc1ccc(O)cc1 (stereo unspecified)
- LC retention time: 1.17 min

Compound: CN1CCC23c4c5ccc(O)c4OC2C(=O)CCC3(O)C1C5 (stereo unspecified)
- LC retention time: 1.21 min

Compound: O=C1CC2OCC=C3CN4CCC56c7ccccc7N1C5C2C3CC46 (stereo unspecified)
- LC retention time: 3.01 min

Compound: C#CCN(C)C(C)Cc1ccccc1 (stereo unspecified)
- LC retention time: 3.38 min

Compound: CCC(C(=O)OCCN1CCOC(c2ccccc2)C1C)c1ccccc1 (stereo unspecified)
- LC retention time: 7.17 min

Compound: CC12Cc3cn[nH]c3C(O)C1CCC1C2CCC2(C)C1CCC2(C)O (stereo unspecified)
- LC retention time: 6.7 min

Compound: C#CC1(O)CCC2C3C(C)CC4=C(CCC(=O)C4)C3CCC21C (stereo unspecified)
- LC retention time: 7.51 min

Compound: CC1C(c2ccccc2)OCCN1C (stereo unspecified)
- LC retention time: 2.55 min

Compound: CNC(C)CCC=C(C)C (stereo unspecified)
- LC retention time: 3.6 min

Compound: CC(Cc1ccccc1)NCCC#N (stereo unspecified)
- LC retention time: 2.77 min

Compound: CC1CC2C(C(O)CC3(C)C2CCC3(O)C(=O)CO)C2(C)C=CC(=O)C=C12 (stereo unspecified)
- LC retention time: 6.78 min

Compound: CC(N)Cc1ccc2c(c1)OCO2 (stereo unspecified)
- LC retention time: 2.5 min

Compound: CCCCCC(C)N (stereo unspecified)
- LC retention time: 3.17 min

Compound: CC(C)(C)NCC(O)COc1cccc2c1CC(O)C(O)C2 (stereo unspecified)
- LC retention time: 2.81 min

Compound: CC12C=CC(=O)C=C1CCC1C2C(=O)CC2(C)C1CCC2(O)C(=O)CO (stereo unspecified)
- LC retention time: 6.12 min

Compound: CC=CC(=O)N(CC)C(CC)C(=O)N(C)C (stereo unspecified)
- LC retention time: 4.55 min

Compound: NC(=O)c1ncn(C2OC(CO)C(O)C2O)c1N (stereo unspecified)
- LC retention time: 0.58 min

Compound: Cc1cc2c(OCC(CNC(C)(C)C)OC(=O)c3ccccc3)cccc2[nH]1 (stereo unspecified)
- LC retention time: 6.95 min

Compound: CC(C)(C)NCC(O)COc1nsnc1N1CCOCC1 (stereo unspecified)
- LC retention time: 3.62 min

Compound: Cc1ccc(CC(C)N)cc1 (stereo unspecified)
- LC retention time: 3.45 min

Compound: C#CC1(O)CCC2C3CCC4=CC(=O)CCC4=C3C=CC21CC (stereo unspecified)
- LC retention time: 7.47 min

Compound: CC(Cc1ccc(O)cc1)NCC(O)c1cc(O)cc(O)c1 (stereo unspecified)
- LC retention time: 2.23 min

Compound: O=C(O)CS(=O)C(c1ccccc1)c1ccccc1 (stereo unspecified)
- LC retention time: 6.69 min

Compound: CC(C)(C)NCC(O)COc1cccc2c1CCC(=O)N2 (stereo unspecified)
- LC retention time: 2.65 min

Compound: NC(=O)CN1CC(c2ccccc2)CC1=O (stereo unspecified)
- LC retention time: 3.86 min

Compound: COc1ccc2c3c1OC1C(=O)CCC4(O)C(C2)N(C)CCC314 (stereo unspecified)
- LC retention time: 2.47 min

Compound: CC(=O)Nc1nnc(S(N)(=O)=O)s1
- LC retention time: 1.78 min

Compound: CN1CCC23c4c5ccc(O)c4OC2C(O)C=CC3C1C5 (stereo unspecified)
- LC retention time: 1.1 min

Compound: CNC(C)(C)Cc1ccccc1
- LC retention time: 3.14 min

Compound: CC1NCCOC1c1ccccc1 (stereo unspecified)
- LC retention time: 2.51 min

Compound: CCCC1OC2CC3C4CCC5=CC(=O)C=CC5(C)C4C(O)CC3(C)C2(C(=O)CO)O1 (stereo unspecified)
- LC retention time: 7.46 min
